Marks after values point to notes of the source that are not given here.
Tested on: CARCINOME DU POUMON DE LEWIS
Assay: Antitumour activity on Lewis lung carcinoma implanted i.m. in mice
Format: in vivo, souris C57Bl/6
Conditions: 60 mg/kg i.p. x j 1,5,9
Text: Les tests d'activité antitumorale ont été conduits au sein du Screening and Pharmacology Group de l'E.O.R.T.C., implanté à l'Institut Mario Negri de Milan.
Ces essais ont été conduits soit en mono-injection à différentes doses au jour J+1 suivant la greffe de la tumeur, soit en poly-injections chroniques Q1D, soit en protocoles Q4D.

SMILES: O=P1(N(CCCl)CCCl)NCCCO1 (stereo not shown) [CPA, Cyclophosphamide, reference compound]
- Volume de la tumeur (d^2.D/2)cm^3 ± S.E. (jour 17): 0,57±0,16* cm^3
- Volume de la tumeur (d^2.D/2)cm^3 ± S.E. (jour 20): 1,30±0,17* cm^3
- Volume de la tumeur (d^2.D/2)cm^3 ± S.E. (jour 24): 3,03±0,25* cm^3
- Poids moyen de la tumeur (g ± S.E.) (sacrifice jour 25): 4,14 ± 0,27 g
